# Tests used:
# Format in all cases: cell-based
# [1] = system: E. faecalis MMX 847; cErmB; assay: MIC (broth microdilution or agar dilution, CLSI); conditions: Enterococcus faecalis; E. faecalis HAV#036, MMX 847; mac-resistant, cErmB; read-out: MIC
# Method in brief: (§1)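 Isolates other than streptococci and anaerobes, which had their own procedures, were grown overnight at 35° C on tryptic soy agar with 5% sheep blood. Suspensions were then diluted to a final inoculum of 5×10^5 CFU/mL in broth microdilution wells.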
# E. coli ATCC 25922 = assay: MIC (broth microdilution or agar dilution, CLSI); conditions: Escherichia coli, ATCC25922; E. coli HAV#006, ATCC 25922; read-out: MIC
# Method in brief: as §1
# S. pyogenes ATCC 19615 = assay: MIC (broth microdilution or agar dilution, CLSI); conditions: Streptococcus pyogenes, ATCC19615, S. pyogenes HAV#004, ATCC 19615; read-out: MIC
# Method in brief: as §1
# [2] = system: S. aureus ATCC BAA-1707 (MRSA); assay: MIC (broth microdilution or agar dilution, CLSI); conditions: Staphylococcus aureus; S. aureus HAV#016, ATCC BAA-1707; MRSA; read-out: MIC
# Method in brief: as §1
# [3] = system: S. pyogenes MMX 946; cErmB; assay: MIC (broth microdilution or agar dilution, CLSI); conditions: Streptococcus pyogenes; S. pyogenes HAV#035, MMX 946; cErmB, mac-resistant; read-out: MIC
# Method in brief: as §1
# S. pneumoniae ATCC 49619 = assay: MIC (broth microdilution or agar dilution, CLSI); conditions: Streptococcus pneumoniae, ATCC49619
# Method in brief: as §1
# K. pneumoniae ATCC 10031 = assay: MIC (broth microdilution or agar dilution, CLSI); conditions: Klebsiella pneumoniae, ATCC10031, K. pneumoniae HAV#008, ATCC 10031; read-out: MIC
# Method in brief: as §1
# [4] = system: S. pneumoniae MMX 3028 cErmB; assay: MIC (broth microdilution or agar dilution, CLSI); conditions: Streptococcus pneumoniae, MMX3028CERMB; S. pneumoniae HAV#033; MMX 3028, cErmB; read-out: MIC
# Method in brief: as §1
# S. aureus ATCC 29213 = assay: MIC (broth microdilution or agar dilution, CLSI); conditions: Staphylococcus aureus, ATCC29213, S. aureus HAV#001, ATCC 29213, MP-549; read-out: MIC
# Method in brief: as §1
# [5] = system: S. pneumoniae MMX 3031 cMefA; assay: MIC (broth microdilution or agar dilution, CLSI); conditions: Streptococcus pneumoniae, MMX3031CMEFA, S. pneumoniae HAV#034; MMX 3031, cMefA; read-out: MIC
# Method in brief: as §1
# S. aureus MMX 3035 cErmA = assay: MIC (broth microdilution or agar dilution, CLSI); conditions: Staphylococcus aureus, MMX3035CERMA; S. aureus HAV#031, MMX 3035; cErmA; read-out: MIC
# Method in brief: as §1
# S. pneumoniae ATCC 6303 = assay: MIC (broth microdilution or agar dilution, CLSI); conditions: Streptococcus pneumoniae, ATCC6303; S. pneumoniae HAV#351, ATCC 6303; read-out: MIC
# Method in brief: as §1
# E. faecalis ATCC 29212 = assay: MIC (broth microdilution or agar dilution, CLSI); conditions: Enterococcus faecalis, ATCC29212, E. faecalis HAV#005, ATCC 29212; read-out: MIC
# Method in brief: as §1
# E. coli LptD = assay: MIC (broth microdilution or agar dilution, CLSI); conditions: Escherichia coli, E. coli HAV#040; LptD; read-out: MIC
# Method in brief: as §1
# S. aureus MP-549 msrA = assay: microbe, parasite or virus in culture; conditions: Staphylococcus aureus, MP549MSRA; S. aureus HAV#032, MP-549; MSR(A); read-out: MIC
# Method in brief: as §1
# S. aureus BAA 977 iErmA = assay: microbe, parasite or virus in culture; conditions: Staphylococcus aureus, BAA-977 / MRSA
# Method in brief: as §1
# E. coli ΔTolC = assay: microbe, parasite or virus in culture; conditions: Escherichia coli, E. coli HAV#038; ΔTolC
# Method in brief: as §1
# [6] = system: broad panel of different clinical isolates; assay: microbe, parasite or virus in culture
# Method in brief: as §1
# E. coli armA = assay: microbe, parasite or virus in culture; conditions: Escherichia coli, E. coli HAV#056; Clinical, armA
# Method in brief: as §1
structure (smiles),measurement,setting,value
CC[C@H]1OC(=O)[C@H](C)[C@@H](O[C@H]2C[C@@](C)(OC)[C@@H](O)[C@H](C)O2)[C@H](C)[C@@H](O[C@@H]2O[C@H](C)C[C@H](N(C)C)[C@H]2O)[C@](C)(O)C[C@@H](C)CN(C)[C@H](C)[C@@H](O)[C@]1(C)O [Azithromycin],MIC,[1],> 64 µg/mL
same,MIC,E. coli ATCC 25922,4 µg/mL
same,MIC,S. pyogenes ATCC 19615,0.06 µg/mL
same,MIC,[2],1 µg/mL
same,MIC,[3],> 64 µg/mL
same,MIC,S. pneumoniae ATCC 49619,0.125 µg/mL
same,MIC,K. pneumoniae ATCC 10031,4 µg/mL
same,MIC,[4],> 64 µg/mL
same,MIC,S. aureus ATCC 29213,1 µg/mL
same,MIC,[5],16 µg/mL
same,MIC,S. aureus MMX 3035 cErmA,> 64 µg/mL
same,MIC,S. pneumoniae ATCC 6303,2 µg/mL
same,MIC,E. faecalis ATCC 29212,8 µg/mL
same,MIC,E. coli LptD,≤ 0.03 µg/mL
same,MIC,S. aureus MP-549 msrA,> 64 µg/mL
same,MIC,S. aureus BAA 977 iErmA,> 64 µg/mL
same,MIC,E. coli ΔTolC,1 µg/mL
same,MIC,"[6]; Enterococcus faecalis, E. faecalis HAV#602, Clincal",4 µg/mL
same,MIC,"[6]; Enterococcus faecalis, E. faecalis HAV#607, Clinical",> 128 µg/mL
same,MIC,"[6]; Enterococcus faecalis, E. faecalis HAV#608, Clinical",> 128 µg/mL
same,MIC,"[6]; Enterococcus faecalis, E. faecalis HAV#609, Clinical",> 128 µg/mL
same,MIC,"[6]; Enterococcus faecalis, E. faecalis HAV#610, Clinical",> 128 µg/mL
same,MIC,"[6]; Enterococcus faecalis, S. faecalis 5060, Line R & Vanco R",> 256 µg/mL
same,MIC,"[6]; Enterococcus faecalis, S. faecalis 5074, Line R",4 µg/mL
same,MIC,"[6]; Enterococcus faecalis, VRE, E. faecalis HAV#251, Clinical VRE",> 64 µg/mL
same,MIC,"[6]; Enterococcus faecalis, VRE, E. faecalis HAV#606, Clinical",> 128 µg/mL
same,MIC,"[6]; Enterococcus faecium, E. faecium HAV#317, Clinical",8 µg/mL
same,MIC,"[6]; Enterococcus faecium, E. faecium HAV#324, Clinical",> 128 µg/mL
same,MIC,"[6]; Enterococcus faecium, E. faecium HAV#327, Clinical",> 128 µg/mL
same,MIC,"[6]; Enterococcus faecium, E. faecium HAV#328, Clinical",> 128 µg/mL
same,MIC,"[6]; Enterococcus faecium, E. faecium HAV#329, Clinical",> 128 µg/mL
same,MIC,"[6]; Enterococcus faecium, VRE, E. faecium HAV#318, VanA",> 64 µg/mL
same,MIC,"[6]; Enterococcus faecium, VRE, E. faecium HAV#320, Clinical",> 128 µg/mL
same,MIC,"[6]; Escherichia coli, E. coli HAV#501, Clinical",64 µg/mL
same,MIC,"[6]; Escherichia coli, E. coli HAV#503, Clinical",8 µg/mL
same,MIC,"[6]; Escherichia coli, E. coli HAV#511, Clinical",4 µg/mL
same,MIC,"[6]; Escherichia coli, E. coli HAV#512, Clinical",8 µg/mL
same,MIC,"[6]; Escherichia coli, E. coli HAV#513, Clinical",8 µg/mL
same,MIC,"[6]; Escherichia coli, E. coli HAV#514, Clinical",8 µg/mL
same,MIC,"[6]; Escherichia coli, E. coli HAV#516, ESBL-producing",4 µg/mL
same,MIC,"[6]; Haemophilus influenzae, ATCC9007, H. influenzae HAV#376, ATCC-9007",2 µg/mL
same,MIC,"[6]; Klebsiella pneumoniae, K. pneumoniae HAV#041, Clinical, KPC",> 64 µg/mL
same,MIC,"[6]; Klebsiella pneumoniae, K. pneumoniae HAV#404, Clinical",8 µg/mL
same,MIC,"[6]; Klebsiella pneumoniae, K. pneumoniae HAV#405, Clinical",8 µg/mL
same,MIC,"[6]; Staphylococcus aureus, MRSA, S. aureus HAV#017, MRSA Col(Colindale, England)",1 µg/mL
same,MIC,"[6]; Staphylococcus aureus, MRSA, S. aureus HAV#218, Line R",> 64 µg/mL
same,MIC,"[6]; Staphylococcus aureus, MRSA, S. aureus HAV#220, Line R",> 64 µg/mL
same,MIC,"[6]; Staphylococcus aureus, MSSA, S. aureus HAV#219, Line R",> 64 µg/mL
same,MIC,"[6]; Staphylococcus aureus, S. aureus HAV#051, mecA, norA, spcl, ermA, aad1, aac6′-aph2″",2 µg/mL
same,MIC,"[6]; Staphylococcus aureus, S. aureus HAV#052, mecA, norA, fosB, blaZ",2 µg/mL
same,MIC,"[6]; Staphylococcus aureus, S. aureus HAV#053 mecA, norA, fosB",2 µg/mL
same,MIC,"[6]; Staphylococcus aureus, S. aureus HAV#054, mecA, norA, spcl, aad1, fosB, ermA, aac6′-aph2″, blaZ",> 256 µg/mL
same,MIC,"[6]; Staphylococcus aureus, S. aureus HAV#211, Clinical",> 64 µg/mL
same,MIC,"[6]; Staphylococcus aureus, S. aureus HAV#212, Clinical",1 µg/mL
same,MIC,"[6]; Staphylococcus aureus, S. aureus HAV#213, Clinical",0.25 µg/mL
same,MIC,"[6]; Staphylococcus aureus, S. aureus HAV#214, Clinical",0.25 µg/mL
same,MIC,"[6]; Staphylococcus aureus, S. aureus HAV#215, Clinical",0.25 µg/mL
same,MIC,"[6]; Staphylococcus aureus, S. aureus HAV#216, Clinical, cfr",> 128 µg/mL
same,MIC,"[6]; Staphylococcus aureus, S. aureus HAV#217, cfr",> 128 µg/mL
same,MIC,"[6]; Staphylococcus aureus, VISA, S. aureus HAV#203, Clinical (VISA)",> 64 µg/mL
same,MIC,"[6]; Staphylococcus epidermidis, S. epidermidis HAV# 275 Clinical, cfr",32 µg/mL
same,MIC,"[6]; Staphylococcus epidermidis, S. epidermidis HAV# 276, cfr",> 64 µg/mL
same,MIC,"[6]; Staphylococcus epidermidis, S. epidermidis HAV#277, Line R",> 64 µg/mL
same,MIC,"[6]; Staphylococcus epidermidis, S. epidermidis HAV#278 Line R",> 64 µg/mL
same,MIC,"[6]; Staphylococcus epidermidis, S. epidermidis HAV#279, Line R",> 64 µg/mL
same,MIC,"[6]; Staphylococcus haemolyticus, S. haemolyticus 5052, Line R & Methicillin R",> 256 µg/mL
same,MIC,"[6]; Streptococcus pneumoniae, ATCC700673, S. pneumoniae HAV#352, ATCC 700673, MDR",> 64 µg/mL
same,MIC,"[6]; Streptococcus pneumoniae, ATCCBAA255, S. pneumoniae HAV#354, ATCC-BAA-255",2 µg/mL
same,MIC,"[6]; Streptococcus pneumoniae, ATCCBAA334, S. pneumoniae HAV#353, ATCC-BAA-334",1 µg/mL
same,MIC,"[6]; Streptococcus pneumoniae, S. pneumoniae HAV#356, Clinical",> 64 µg/mL
same,MIC,"[6]; Streptococcus pneumoniae, S. pneumoniae HAV#358, Clinical",2 µg/mL
same,MIC,E. coli armA,4 µg/mL

# Source: US20230203081A1, “LINCOSAMIDE ANTIBIOTICS AND USES THEREOF” (President and Fellows of Harvard College, priority 2020, published 2023)
